Test results published in patent US20230277449A1, “ORAL CAVITY POLYMERIC DELIVERY SYSTEMS” (YISSUM RESEARCH DEVELOPMENT COMPANY OF THE HEBREW …, priority 2020, published 2023).
Where “and” joins values, the source holds several entries; their conditions need not be identical. Equal entries are not always repeated. Where two headings read alike, the source gives them in different places.

What was measured:
[1] = pig, in vivo, iv, 1 mg/kg
Description: 2.1.7 In-vivo protocol of IV administration: Domestic female pigs (sus scrofa domesticus) of 35-40 kg were allowed to acclimate before the experiment. Pigs were fasted overnight before the experiments. On the morning of the experiment pigs were anesthetized by xylazine 1 mg/kg, midazolam 0.04 mg/kg, ketamine 5 mg/kg and propofol 4 mg/kg. Pigs were positioned on their back. Endotracheal tube was inserted, and pigs were respired with oxygen. […] Catheter was inserted into ear vein through which physiological saline was administered. Pigs received amoxicillin 15 mg/kg antibiotic and tolfenamic acid 2 mg/kg analgesic. An intra-jugular catheter was inserted for blood sampling. Pigs were constantly monitored for their respiration rate, rectal temperature, O2 saturation, heart rate and blood pressure. Cardiovascular parameters were obtained by blood pressure monitor with porcine adapted front leg cuff. […] Plasma was collected into tubes containing 10 µl mercaptoethanol and stored at -80° C. pending analysis. Isoflurane anesthesia was terminated, and pigs were recovered under veterinary surveillance to consciousness.
The samples were reconstituted in 100 µl 1:4 MeOH:DDW solution containing 0.01%^v/v formic acid and 0.1%^v/v mercaptoethanol and injected into LC-MS-MS system.
2.1.12 Chromatographic analysis of in-vivo samples: The chromatography was performed using a Shimadzu UHPLC System. The chromatographic separations were performed on a Kinetex™ (Phenomenex, CA, USA) column (EVO C18, 2.6 µm, 100 Å, 100 × 2.1 mm), protected by a SecurityGuard™ (Phenomenex, CA, USA) ULTRA cartridge (C18, 4 × 2 mm). The injection volume was 5 µl, temperature was 40° C.
Following this analysis PK parameters were obtained.

[2] = Monitored vital parameters after CBD and TPH administration to the mucosa of pigs; format: in vivo, pig; conditions: median (lowest - highest)
From the text: Israel. […] Pigs were fasted overnight before the experiments. […] They were positioned on their back.

[3] = cited from earlier work
[4] = cited from earlier work; remark: listed apart in the source
[5] = In-vivo oral mucosal administration of CBD and TPH in mucoadhesive shell to pigs
From the text: 4.1.6 In-vivo experiment protocol: Domestic female pigs (sus scrofa domesticus) of 35 - 40 kg body weight were obtained from Lahav ltd. […] After arrival to the unit for experimental surgery at Hadassah Ein-Kerem medical center (Jerusalem, Israel) they were allowed to acclimate during a period of a week with free access to food and water, and were under veterinary surveillance. Pigs were fasted overnight before the experiments. On the morning of the experiment pigs were anesthetized by xylazine 1 mg/kg, midazolam 0.04 mg/kg, ketamine 5 mg/kg and propofol 4 mg/kg. They were positioned on their back. Endotracheal tube was inserted, and pigs were respired with oxygen. […] Catheter was inserted into the ear vein through which physiological saline was administered. Pigs received amoxicillin 15 mg/kg antibiotic and tolfenamic acid 2 mg/kg analgesic. An intra-jugular catheter was inserted for blood sampling. Pigs were constantly monitored for their respiration rate, rectal temperature, O2 saturation, heart rate and blood pressure. Cardiovascular parameters were obtained by blood pressure monitor with porcine adapted front leg cuff. […] A mucoadhesive “shell” was adhered to it and pressed with finger for 1 min, to ensure full adhesion. […] Visual inspection approved that the mucoadhesive “shell” was fully adhered to the mucosa and there were no leakages. […] Plasma was separated and stored at -80° C. pending analysis. At 8 hours mucoadhesive “shell” was removed, the mucosa was carefully cleaned with a gauze, so that no CBD and TPH will remain on its surface. At 12 hours pigs were euthanized by injection of overdose of KCl.
The samples were reconstituted in 100 µl 1:4 MeOH:DDW solution containing 0.01%^v/v formic acid and injected into LC-MS-MS.
4.1.9 Chromatographic analysis of CBD from in-vivo study: The chromatography was performed using a Thermo Scientific (San Jose, CA, USA) UHPLC System, which includes Dionex Pump with degasser module and an Accela Autosampler. […]

[6] = Ex-vivo permeability of APO, MTP and ATN in Ussing diffusion chamber; format: in vitro ADME, pig; conditions: for Papp at 0.1 mM: n=3
From the text: Each chamber includes a heating block for temperature control and needle valves for adjustment of carbogen gas flow for oxygenation and gas lift stirring. Buccal tissues of female pigs, ~100 kg, were used in the experiments. Pigs were exposed to anesthetic agents, antibiotics, contrast agents and sacrificed by over exposure to KC1. […] Immediately following euthanasia, buccal tissue was removed and placed in ice-cold modified Ringer’s buffer (pH 7.4). Buccal mucosa segments were trimmed to 800-1000 µm by surgical scissors and tweezers and mounted into Ussing diffusion chambers. The exposed tissue surface area was 0.5 cm^2 and buffered solutions volume in each cell was 3 ml. The system was preheated to 35° C. Modified Ringer buffer was added to the receiver compartment and simulated saliva buffer to the donor side. The tissue oxygenation and the solution mixing were performed by bubbling with carbogen gas. The system was equilibrated for 30 min followed by replacing the solutions and adding 20 µl of the test solutions to the donor side of the chamber to commence the experiment.
Solutions were freshly prepared on the days of the experiments. […] When testing the effect of organic solvents, 100 µl of the simulated saliva in the donor chamber were replaced by 100 µl of 1:1EtOH:PG solution. When testing the effect of NLF 70 µl of the simulated saliva in the donor chamber were replaced by 70 µl of NLF. […] The constituents are melted at 37° C. and mixed until a clear yellow homogenous solution is obtained.
3.1.3 Experimental protocol: 100 µl samples were taken from receiver compartment at the beginning of the experiments, at half an hour and every hour until the end of the experiments. 100 µl of fresh Ringer’s buffer solution were added each time to receiver compartment. The dilution of the concentration of tested substances in the receiver compartment was accounted for. […] All samples were stored at -20° C. pending analysis.
The analysis conditions were as follows: XTerra MS (Waters Inc.) C18 Column (3.5 µm, 2.1 mm × 100 mm), temperature 45° C., flow rate 0.2 ml/min and mobile phase with a linear gradient as detailed in Table 23.
Statistical significance was stated for p<0.05. […] Papp calculation and simulations of steady state plasma levels for in-vivo testing
Apparent permeability (Papp) is calculated by Eq. 5: […]

[7] = in vitro; conditions: female, pig, pH 7.4
From the text: Each chamber includes a heating block for temperature control and needle valves for adjustment of carbogen gas flow for oxygenation and gas lift stirring. Buccal tissues of female pigs, ~100 kg, were used in the experiments. […] Pigs were exposed to anesthetic agents, antibiotics, contrast agents and sacrificed by over exposure to KCl. […] Immediately following euthanasia, buccal tissue was removed and placed in ice-cold modified Ringer’s buffer (pH 7.4). Buccal mucosa segments were trimmed to 800-1000 µm by surgical scissors and tweezers and mounted into Ussing diffusional chambers. The exposed tissue surface area was 0.5 cm^2 and buffered solutions volume in each cell was 3 ml. The system was preheated to 35 (±1)°C. Modified Ringer’s buffer containing 4% bovine serum albumin was added to the receiver side and simulated saliva buffer to the donor side. The tissue oxygenation and the solution mixing were performed by bubbling with carbogen gas. The system was equilibrated for 30 min followed by replacing the solutions and adding 20 µl of the test solutions to the donor side of the chamber to commence the experiment.
4.1.12 Equations utilized: Apparent permeability (Papp) is calculated by Eq. 8: […]

[8] = in vivo
[9] = Insulin release from mucoadhesive tablets in physiologic media; format: physicochemical
Description: Peptides or proteins stabilized or encapsulated into nanoparticles, microparticles or liposomes were mixed in CP and HPC as described above and compressed into tablets. In a typical example, insulin zinc salt powder at 1% of the solids was added to the tablet composition and compressed into tablets. Insulin was released for 10 h from the tablets when placed in physiologic media. PLGA microspheres loaded with 50% insulin prepared by precipitation of concentrated alcoholic-dichloromethane solution into an anti-solvent, heptane. Particles at 10% of the non-active agents were added to the tablet powder and compressed into tablets. Anti-inflammatory protein such as Adiponectin, antimicrobial and antiviral proteins are also considered for buccal delivery.

CN1CCc2cccc3c2C1CC1=C3C(=O)C(=O)C=C1 (centres unmarked) [APO-quinone]
half-lives of metabolites [1]: 25.5 (±2.0) min

C=C(C)[C@@H]1CCC(C)=C[C@H]1c1c(O)cc(CCCCC)cc1O [CBD, cannabidiol]
Diastolic blood press (mmHg) ([2]; CBD with TPH): 37 (29 - 46) mmHg | Heart rate (beats/min) ([2]; CBD with TPH): 98 (79 - 123) beats/min | O2 satur (%) ([2]; CBD with TPH): 99 (90 - 100) % | Respiration rate (min^-1) ([2]; CBD with TPH): 10 (10-13) min^-1 | Systolic blood press (mmHg) ([2]; CBD with TPH): 77 (68 - 87) mmHg | Rectal temp (°C) ([2]; CBD ~0.42 mg/kg with TPH ~0.11 mg/kg, three pigs): 37.4 (36.8 - 38.8) °C | aqueous solubility [3]: ~ 12 µg/ml and ~ 0.04 mM | log P [3]: ~ 6 | steady state volume of distribution ([4]; humans, IV administration): 30 L/kg | Css ([5]; ~0.42 mg/kg CBD, 30.0 mg/ml, 8 h exposure): not reached

COCCc1ccc(OCC(O)CNC(C)C)cc1 (centres unmarked) [MTP, metoprolol]
Papp lower at pH 5.9 than at pH 7.4 [6]: 2 fold | Papp ([6]; female, pig, pH 7.4 with 3.33% v/v of 1:1 ethanol: propylene glycol solution, read-out: Apparent permeability (Papp)): 7.24 ×10⁻⁶ cm/s | Papp at 0.1 mM ([6]; female, pig, simulated saliva pH 5.9, mean (±SD), read-out: Apparent permeability (Papp)): 1.11 ×10⁻⁶ cm/s | Papp at 0.1 mM ([6]; female, pig, simulated saliva pH 7.4, standard 0.1 mM, mean (±SD), read-out: Apparent permeability (Papp)): 2.48 ×10⁻⁶ cm/s | Papp at 6 h [7]: 1.02 ×10⁻⁶ cm/s | Papp at 6 h, 34 µg/ml [7]: 9.89 ×10⁻⁶ cm/s

Cn1c(=O)c2[nH]cnc2n(C)c1=O [TPH, theophylline]
CL slower than CBD [8]: ~ 50 fold | log P [3]: ~ 0 | CL ([4]; in vivo): 0.017 to 0.04 L/h/kg | TPH plateau higher than the highest plasma level of CBD ([5]; considering the molar dose administered): 300 fold | time to plateau of plasma levels (lag-time) ([5]; ~0.11 mg/kg TPH, 8.0 mg/ml, 1.58 cm^2, three pigs): 5 h

Insulin: insulin zinc salt powder at 1% of the solids in CP and HPC tablets
duration of insulin release [9]: 10 h
